Tested on: cy5-TTRS (WT Tte-PreQ1 riboswitch aptamer) (RNA, riboswitch) CUCACCUGGGUCGCAGUAACCCCAGUUAACAAAACAAGGGAGGUAAUUUU
Assay: microscale thermophoresis
Details: 100 mM KCl, 1 mM MgCl2; 50 mM Tris pH 7.5, RT, DMSO; apparent, single-site fit

KD: 11.7 ± 0.35 nM
Structure (SMILES): NCc1c[nH]c2nc(N)[nH]c(=O)c12
